# Values of other authors, collected in article PMC10552101 (ACS Omega, 2023).
smiles,measurement,value
"CNC1CC(c2ccc(Cl)c(Cl)c2)c2ccccc21 (stereo not shown) [LU-19-005, indatraline]",onset,slow onset
